The NIST ThermoML archive (doi:10.1016/j.jct.2004.09.021)

Experiments:
[1] = 101 kPa, Liquid
[2] = refractive index (Na D-line) (dimensionless); details: 101.33 kPa, Liquid
[3] = xn = mol fraction of the nth substance listed; details: 101 kPa, Liquid
[4] = refractive index (Na D-line) (dimensionless); xn = mol fraction of the nth substance listed; details: 101 kPa, Liquid

CCCCCC [hexane]
Details | mass density, 293.15 K [kg/m3] | mass density, 298.15 K [kg/m3] | mass density, 303.15 K [kg/m3] | refractive index, 293.15 K | refractive index, 298.15 K | refractive index, 303.15 K | viscosity, 293.15 K [mPa·s] | viscosity, 298.15 K [mPa·s] | viscosity, 303.15 K [mPa·s]
[1] | 659.5 | 654.96 | 650.42 | – | – | – | 0.3114 | 0.2974 | 0.2838
[2] | – | – | – | 1.3759 | 1.3732 | 1.3709 | – | – | –

CCCCCCCC [octane]
Details | mass density, 293.15 K [kg/m3] | mass density, 298.15 K [kg/m3] | mass density, 303.15 K [kg/m3] | refractive index, 293.15 K | refractive index, 298.15 K | refractive index, 303.15 K | viscosity, 293.15 K [mPa·s] | viscosity, 298.15 K [mPa·s] | viscosity, 303.15 K [mPa·s]
[1] | 702.61 | 698.57 | 694.56 | – | – | – | 0.5464 | 0.5123 | 0.483
[2] | – | – | – | 1.3965 | 1.3947 | 1.3926 | – | – | –

CCCCCCCCCC [decane]
Details | mass density, 293.15 K [kg/m3] | mass density, 298.15 K [kg/m3] | mass density, 303.15 K [kg/m3] | refractive index, 293.15 K | refractive index, 298.15 K | refractive index, 303.15 K | viscosity, 293.15 K [mPa·s] | viscosity, 298.15 K [mPa·s] | viscosity, 303.15 K [mPa·s]
[1] | 729.91 | 726.16 | 722.36 | – | – | – | 0.9169 | 0.8512 | 0.7898
[2] | – | – | – | 1.4148 | 1.4118 | 1.4089 | – | – | –

COc1ccccc1 [anisole] + CCCCCCC
Details | mass density, 293.15 K [kg/m3] | mass density, 298.15 K [kg/m3] | mass density, 303.15 K [kg/m3] | refractive index, 293.15 K | refractive index, 298.15 K | refractive index, 303.15 K | viscosity, 293.15 K [mPa·s] | viscosity, 298.15 K [mPa·s] | viscosity, 303.15 K [mPa·s]
[3], x1 = 0.1002 | 707.25 | 702.96 | 698.59 | – | – | – | 0.4315 | 0.4121 | 0.3918
[3], x1 = 0.2002 | 731.96 | 727.61 | 723.18 | – | – | – | 0.4541 | 0.434 | 0.4135
[3], x1 = 0.2987 | 757.78 | 753.37 | 748.88 | – | – | – | 0.4775 | 0.4581 | 0.4356
[3], x1 = 0.3994 | 785.83 | 781.36 | 776.8 | – | – | – | 0.5184 | 0.4896 | 0.4639
[3], x1 = 0.4996 | 815.43 | 810.9 | 806.29 | – | – | – | 0.5675 | 0.5347 | 0.5064
[3], x1 = 0.5958 | 845.62 | 841.04 | 836.39 | – | – | – | 0.6285 | 0.5911 | 0.5603
[3], x1 = 0.6993 | 880.28 | 875.65 | 870.94 | – | – | – | 0.7129 | 0.6692 | 0.6322
[3], x1 = 0.7981 | 915.67 | 911.07 | 906.4 | – | – | – | 0.8105 | 0.7613 | 0.7161
[3], x1 = 0.8991 | 953.76 | 949.15 | 944.46 | – | – | – | 0.9337 | 0.8767 | 0.8197
[3], x1 = 1 | 993.81 | 989.15 | 984.42 | – | – | – | 1.085 | 1.017 | 0.9285
[4], x1 = 0.1007 | – | – | – | 1.3975 | 1.3954 | 1.3924 | – | – | –
[4], x1 = 0.21 | – | – | – | 1.4087 | 1.4064 | 1.4036 | – | – | –
[4], x1 = 0.31 | – | – | – | 1.4189 | 1.4167 | 1.414 | – | – | –
[4], x1 = 0.405 | – | – | – | 1.4294 | 1.4272 | 1.4248 | – | – | –
[4], x1 = 0.4985 | – | – | – | 1.4407 | 1.4385 | 1.4362 | – | – | –
[4], x1 = 0.583 | – | – | – | 1.4516 | 1.4495 | 1.4474 | – | – | –
[4], x1 = 0.6989 | – | – | – | 1.4683 | 1.466 | 1.464 | – | – | –
[4], x1 = 0.792 | – | – | – | 1.4826 | 1.4802 | 1.4782 | – | – | –
[4], x1 = 0.8941 | – | – | – | 1.499 | 1.4966 | 1.4947 | – | – | –
[4], x1 = 1 | – | – | – | 1.5161 | 1.5141 | 1.5129 | – | – | –

COc1ccccc1 [anisole] + CCCCCC
Details | mass density, 293.15 K [kg/m3] | mass density, 298.15 K [kg/m3] | mass density, 303.15 K [kg/m3] | refractive index, 293.15 K | refractive index, 298.15 K | refractive index, 303.15 K | viscosity, 293.15 K [mPa·s] | viscosity, 298.15 K [mPa·s] | viscosity, 303.15 K [mPa·s]
[3], x1 = 0.0993 | 688.1 | 683.56 | 678.98 | – | – | – | 0.3336 | 0.3159 | 0.305
[3], x1 = 0.1959 | 716.85 | 712.32 | 707.69 | – | – | – | 0.3594 | 0.3451 | 0.3257
[3], x1 = 0.3008 | 749.04 | 744.42 | 739.83 | – | – | – | 0.3971 | 0.3776 | 0.3565
[3], x1 = 0.3998 | 780.42 | 775.78 | 771.15 | – | – | – | 0.4376 | 0.4157 | 0.396
[3], x1 = 0.5045 | 814.71 | 810.08 | 805.39 | – | – | – | 0.4958 | 0.4701 | 0.4451
[3], x1 = 0.5936 | 844.84 | 840.19 | 835.52 | – | – | – | 0.5596 | 0.529 | 0.5002
[3], x1 = 0.6834 | 876.15 | 871.52 | 866.76 | – | – | – | 0.6392 | 0.6028 | 0.5681
[3], x1 = 0.7909 | 914.94 | 910.25 | 905.45 | – | – | – | 0.756 | 0.71 | 0.6685
[3], x1 = 0.8975 | 954.65 | 949.92 | 945.31 | – | – | – | 0.9044 | 0.8483 | 0.7899
[3], x1 = 1 | 993.81 | 989.15 | 984.42 | – | – | – | 1.085 | 1.017 | 0.9285
[4], x1 = 0.095 | – | – | – | 1.3873 | 1.3844 | 1.3819 | – | – | –
[4], x1 = 0.193 | – | – | – | 1.399 | 1.3952 | 1.3931 | – | – | –
[4], x1 = 0.288 | – | – | – | 1.4109 | 1.4081 | 1.4061 | – | – | –
[4], x1 = 0.391 | – | – | – | 1.4243 | 1.4217 | 1.4197 | – | – | –
[4], x1 = 0.5121 | – | – | – | 1.4408 | 1.4382 | 1.4365 | – | – | –
[4], x1 = 0.5942 | – | – | – | 1.4525 | 1.45 | 1.4483 | – | – | –
[4], x1 = 0.678 | – | – | – | 1.4651 | 1.4626 | 1.4609 | – | – | –
[4], x1 = 0.779 | – | – | – | 1.4807 | 1.4783 | 1.4767 | – | – | –
[4], x1 = 0.881 | – | – | – | 1.497 | 1.4946 | 1.4931 | – | – | –
[4], x1 = 1 | – | – | – | 1.5161 | 1.5141 | 1.5129 | – | – | –

CCCCCCCCCCCC [dodecane]
Details | mass density, 293.15 K [kg/m3] | mass density, 298.15 K [kg/m3] | mass density, 303.15 K [kg/m3] | refractive index, 293.15 K | refractive index, 298.15 K | refractive index, 303.15 K | viscosity, 293.15 K [mPa·s] | viscosity, 298.15 K [mPa·s] | viscosity, 303.15 K [mPa·s]
[1] | 748.78 | 745.14 | 741.52 | – | – | – | 1.487 | 1.373 | 1.25
[2] | – | – | – | 1.421 | 1.4172 | 1.4135 | – | – | –

CCCCCCC [heptane]
Details | mass density, 293.15 K [kg/m3] | mass density, 298.15 K [kg/m3] | mass density, 303.15 K [kg/m3] | refractive index, 293.15 K | refractive index, 298.15 K | refractive index, 303.15 K | viscosity, 293.15 K [mPa·s] | viscosity, 298.15 K [mPa·s] | viscosity, 303.15 K [mPa·s]
[1] | 683.96 | 679.77 | 675.5 | – | – | – | 0.4127 | 0.3909 | 0.3702
[2] | – | – | – | 1.3872 | 1.3855 | 1.3827 | – | – | –

CCCCCCCCC [nonane]
Details | mass density, 293.15 K [kg/m3] | mass density, 298.15 K [kg/m3] | mass density, 303.15 K [kg/m3] | refractive index, 293.15 K | refractive index, 298.15 K | refractive index, 303.15 K | viscosity, 293.15 K [mPa·s] | viscosity, 298.15 K [mPa·s] | viscosity, 303.15 K [mPa·s]
[1] | 717.59 | 713.71 | 709.81 | – | – | – | 0.7136 | 0.6715 | 0.6307
[2] | – | – | – | 1.404 | 1.4027 | 1.4002 | – | – | –

COc1ccccc1 [anisole]
Details | mass density, 293.15 K [kg/m3] | mass density, 298.15 K [kg/m3] | mass density, 303.15 K [kg/m3] | refractive index, 293.15 K | refractive index, 298.15 K | refractive index, 303.15 K | viscosity, 293.15 K [mPa·s] | viscosity, 298.15 K [mPa·s] | viscosity, 303.15 K [mPa·s]
[1] | 993.81 | 989.15 | 984.42 | – | – | – | 1.085 | 1.017 | 0.9285
[2] | – | – | – | 1.5161 | 1.5141 | 1.5129 | – | – | –

CCCCCC [hexane] + COc1ccccc1
x2 = 0
Details | mass density, 293.15 K [kg/m3] | mass density, 298.15 K [kg/m3] | mass density, 303.15 K [kg/m3] | refractive index, 293.15 K | refractive index, 298.15 K | refractive index, 303.15 K | viscosity, 293.15 K [mPa·s] | viscosity, 298.15 K [mPa·s] | viscosity, 303.15 K [mPa·s]
[3] | 659.5 | 654.96 | 650.42 | – | – | – | 0.3114 | 0.2974 | 0.2838
[4] | – | – | – | 1.3759 | 1.3732 | 1.3709 | – | – | –
